How the values were obtained:
Type in all cases: functional
[1] = Anticancer activity against melanoma cells; settings: Homo sapiens, Melanoma cell
[2] = Anticancer activity against CNS cancer cells; settings: Homo sapiens, Cancer cell lines
[3] = Anticancer activity against colon cancer cells; settings: Homo sapiens, Cancer cell lines
[4] = Anticancer activity against ovarian cancer cells; settings: Homo sapiens, Cancer cell lines
[5] = Anticancer activity against human NCI60 cells; settings: for CC50: read-out: LC50 (the source's name)
[6] = Anticancer activity against prostate cancer cells; settings: Homo sapiens, Cancer cell lines
[7] = Anticancer activity against nonsmall lung cancer cells; settings: Homo sapiens, Cancer cell lines
[8] = Anticancer activity against renal cancer cells; settings: Homo sapiens, Cancer cell lines
[9] = Anticancer activity against leukemia cells; settings: Homo sapiens, Leukemia cell
[10] = Anticancer activity against breast cancer cells; settings: Homo sapiens, Cancer cell lines

Row | SMILES | GI50 [1] | GI50 [2] | GI50 [3] | GI50 [4] | GI50 [5] | TGI [5] | CC50 [5] | GI50 [6] | GI50 [7] | GI50 [8] | GI50 [9] | GI50 [10]
1 | O=C(c1ccco1)c1c(C(F)(F)F)[n+]([O-])c2ccc(Cl)cc2[n+]1[O-] | 490 nM | 770 nM | 210 nM | 560 nM | 320 nM | 2570 nM | 10000 nM | 110 nM | 360 nM | 200 nM | 190 nM | 280 nM
2 | O=C(c1cccs1)c1c(C(F)(F)F)[n+]([O-])c2cc(F)c(F)cc2[n+]1[O-] | 390 nM | 440 nM | 270 nM | 530 nM | 370 nM | 1620 nM | 9330 nM | 510 nM | 830 nM | 500 nM | 50 nM | 410 nM
3 | Cc1ccc2c(c1)[n+]([O-])c(C(=O)c1cccs1)c(C(F)(F)F)[n+]2[O-] | 900 nM | 750 nM | 880 nM | 270 nM | 550 nM | 5500 nM | 33100 nM | 890 nM | 560 nM | 250 nM | 490 nM | 760 nM
4 | O=C(c1ccco1)c1c(C(F)(F)F)nc2cc(C(F)(F)F)ccc2[n+]1[O-] | 80600 nM | 24400 nM | 85400 nM | 40400 nM | 46800 nM | 89100 nM | > 100000 nM | 44700 nM | 47700 nM | 34600 nM | 43600 nM | 38500 nM
5 | O=C(c1ccco1)c1c(C(F)(F)F)nc2ccc(C(F)(F)F)cc2[n+]1[O-] | 31500 nM | 25300 nM | 49800 nM | 29300 nM | 37200 nM | 83200 nM | > 100000 nM | 38500 nM | 39400 nM | 28600 nM | 88100 nM | 34300 nM
6 | O=C(c1ccccc1)c1c(C(F)(F)F)[n+]([O-])c2ccc(F)cc2[n+]1[O-] | 950 nM | 1450 nM | 540 nM | 1340 nM | 780 nM | 2510 nM | 9120 nM | 530 nM | 800 nM | 1140 nM | 230 nM | 730 nM
7 | O=C(c1ccco1)c1c(C(F)(F)F)[n+]([O-])c2cc(F)c(F)cc2[n+]1[O-] | 560 nM | 370 nM | 190 nM | 390 nM | 380 nM | 1480 nM | 7760 nM | 420 nM | 730 nM | 360 nM | 430 nM | 200 nM
8 | O=C(c1ccc2ccccc2c1)c1c(C(F)(F)F)[n+]([O-])c2cc(Cl)c(Cl)cc2[n+]1[O-] | 1570 nM | 1630 nM | 1550 nM | 1510 nM | 1580 nM | 3160 nM | 6170 nM | 1550 nM | 1700 nM | 1640 nM | 1580 nM | 1620 nM
9 | O=C(c1ccco1)c1c(C(F)(F)F)[n+]([O-])c2cc(Cl)c(Cl)cc2[n+]1[O-] | 1570 nM | 790 nM | 500 nM | 1650 nM | 630 nM | 3090 nM | 11000 nM | 330 nM | 280 nM | 310 nM | 270 nM | 1380 nM
10 | COc1ccc2c(c1)[n+]([O-])c(C(=O)c1cccs1)c(C(F)(F)F)[n+]2[O-] | 5890 nM | 6240 nM | 7080 nM | 4990 nM | 5010 nM | 29500 nM | 49000 nM | 2480 nM | 3930 nM | 5110 nM | 4430 nM | 4920 nM
11 | O=C(c1ccco1)c1c(C(F)(F)F)[n+]([O-])c2ccccc2[n+]1[O-] | 670 nM | 400 nM | 510 nM | 1450 nM | 410 nM | 5130 nM | 26900 nM | 200 nM | 350 nM | 330 nM | 70 nM | 760 nM
12 | O=C(c1ccc2ccccc2c1)c1c(C(F)(F)F)[n+]([O-])c2ccc(F)cc2[n+]1[O-] | 1120 nM | 1610 nM | 740 nM | 1200 nM | 1150 nM | 2820 nM | 8320 nM | 1620 nM | 1540 nM | 1480 nM | 440 nM | 1700 nM
13 | O=C(c1cccs1)c1c(C(F)(F)F)[n+]([O-])c2ccccc2[n+]1[O-] | 1390 nM | 1450 nM | 830 nM | 750 nM | 980 nM | 3890 nM | 11200 nM | 400 nM | 350 nM | 480 nM | 13900 nM | 850 nM
14 | O=C(c1cccs1)c1c(C(F)(F)F)[n+]([O-])c2ccc(C(F)(F)F)cc2[n+]1[O-] | 900 nM | 480 nM | 380 nM | 430 nM |  |  | 5500 nM | 200 nM | 450 nM | 310 nM | 200 nM | 500 nM
15 | Cc1cc2c(cc1C)[n+]([O-])c(C(F)(F)F)c(C(=O)c1cccs1)[n+]2[O-] | 3990 nM | 3050 nM | 5310 nM | 2340 nM | 3470 nM | 17400 nM | 61700 nM | 3890 nM | 2810 nM | 4620 nM | 2710 nM | 3080 nM
16 | O=C(c1ccc2ccccc2c1)c1c(C(F)(F)F)[n+]([O-])c2ccc(C(F)(F)F)cc2[n+]1[O-] | 970 nM | 950 nM | 660 nM | 470 nM | 720 nM | 1910 nM | 5500 nM | 570 nM | 1420 nM | 580 nM | 260 nM | 990 nM
17 | O=C(c1ccc2ccccc2c1)c1c(C(F)(F)F)[n+]([O-])c2cc(F)c(F)cc2[n+]1[O-] | 2500 nM | 2510 nM | 1710 nM | 3800 nM | 2190 nM | 6460 nM | 23400 nM | 1460 nM | 3470 nM | 2180 nM | 770 nM | 2360 nM
18 | O=C(c1ccc2ccccc2c1)c1c(C(F)(F)F)[n+]([O-])c2cc(C(F)(F)F)ccc2[n+]1[O-] | 1480 nM | 1720 nM | 1730 nM | 1690 nM | 1580 nM | 3470 nM | 9330 nM | 1510 nM | 1780 nM | 1550 nM | 1200 nM | 1670 nM
19 | O=C(c1cccs1)c1c(C(F)(F)F)[n+]([O-])c2ccc(Cl)cc2[n+]1[O-] | 120 nM | 90 nM | 40 nM | 160 nM | 70 nM | 500 nM | 2190 nM |  | 70 nM | 30 nM | 70 nM | 80 nM
20 | O=C(c1ccco1)c1c(C(F)(F)F)[n+]([O-])c2ccc(C(F)(F)F)cc2[n+]1[O-] | 1110 nM | 910 nM | 570 nM | 720 nM | 600 nM | 1480 nM | 5010 nM | 420 nM | 760 nM | 430 nM | 210 nM | 570 nM
21 | O=C(c1ccco1)c1nc2cc(C(F)(F)F)ccc2nc1C(F)(F)F | 100000 nM | 75900 nM | 100000 nM | 90800 nM | 87100 nM | 97700 nM | > 100000 nM | 100000 nM | 81500 nM | 100000 nM | 54000 nM | 84000 nM
22 | O=C(c1ccccc1)c1c(C(F)(F)F)[n+]([O-])c2cc(C(F)(F)F)ccc2[n+]1[O-] | 1230 nM | 1710 nM | 1710 nM | 1180 nM | 1290 nM | 2950 nM | 8320 nM | 1320 nM | 1660 nM | 1470 nM | 770 nM | 1410 nM
23 | O=C(c1ccco1)c1nc2cc(C(F)(F)F)ccc2[n+]([O-])c1C(F)(F)F | 42900 nM | 45500 nM | 41400 nM | 42500 nM | 45700 nM | 97700 nM | > 100000 nM | 51900 nM | 48100 nM | 60600 nM | 51100 nM | 32000 nM
24 | O=C(c1ccccc1)c1c(C(F)(F)F)[n+]([O-])c2ccc(C(F)(F)F)cc2[n+]1[O-] | 1130 nM | 690 nM | 460 nM | 580 nM | 510 nM | 1230 nM | 3890 nM | 270 nM | 640 nM | 330 nM | 240 nM | 540 nM
25 | O=C(c1ccco1)c1nc2ccc(C(F)(F)F)cc2[n+]([O-])c1C(F)(F)F | 46100 nM | 35500 nM | 75100 nM | 43000 nM | 47900 nM | 95500 nM | > 100000 nM | 35100 nM | 41900 nM | 49700 nM | 48400 nM | 59100 nM
26 | COc1ccc2c(c1)[n+]([O-])c(C(=O)c1ccco1)c(C(F)(F)F)[n+]2[O-] | 3030 nM | 3200 nM | 2510 nM | 2510 nM | 2820 nM | 18600 nM | 74100 nM | 3160 nM | 3490 nM | 1740 nM | 3960 nM | 2880 nM
